Laboratory results taken from ChEMBL document CHEMBL6074649, “An insight into recent developments in imidazole based heterocyclic compounds as anticancer agents: Synthesis, SARs, and mechanism of actions” (Eur J Med Chem, 2024).
In brackets after ≈: the same amount, converted by molar mass.

Assays:
HCT-15 [1] = test: Antiproliferative activity against human HCT-15 cells assessed as inhibition of cell growth at 20 uM measured for 48 hrs by MTT assay relative to control; format: functional
HT-29 [2] = test: Antiproliferative activity against human HT-29 cells assessed as inhibition of cell growth at 20 uM measured for 48 hrs by MTT assay relative to control; format: functional
MDA-MB-231 [3] = test: Antiproliferative activity against human MDA-MB-231 cells assessed as inhibition of cell growth at 20 uM measured for 48 hrs by MTT assay relative to control; format: functional
A549 [4] = test: Antiproliferative activity against human A549 cells assessed as inhibition of cell growth at 20 uM measured for 48 hrs by MTT assay relative to control; format: functional
HeLa [5] = test: Antiproliferative activity against human HeLa cells assessed as inhibition of cell growth at 20 uM measured for 48 hrs by MTT assay relative to control; format: functional
[6] = Antiproliferative activity against MRC5 cells assessed as reduction in cell growth by MTT assay; format: toxicity, cell-based; conditions: human
NCI-H1299 = test: Antiproliferative activity against human NCI-H1299 cells assessed as reduction in cell growth by MTT assay; format: functional, cell-based
A549 [7] = test: Antiproliferative activity against A549 cells assessed as reduction in cell growth by MTT assay; format: functional, cell-based; conditions: Homo sapiens
NCI-H460 = test: Antiproliferative activity against human NCI-H460 cells assessed as reduction in cell growth by MTT assay; format: functional, cell-based
MCF7 [8] = test: Antiproliferative activity against MCF7 cells assessed as reduction in cell growth by MTT assay; format: functional, cell-based; conditions: Homo sapiens
HepG2 [9] = test: Antiproliferative activity against human HepG2 cells; format: functional, cell-based
MDA-MB-231 [10] = test: Antiproliferative activity against human MDA_MB-231 cells; format: functional, cell-based
[11] = Antiproliferative activity against mouse 4T1-Luc cells; format: functional, cell-based
MCF7 [12] = test: Cytotoxicity against human MCF7 cells assessed as reduction in cell growth incubated for 24 hrs by MTT assay; format: functional, cell-based; conditions: MCF7, 24 h
HL-60 = test: Cytotoxicity against human HL-60 cells assessed as reduction in cell growth incubated for 24 hrs by MTT assay; format: functional, cell-based; conditions: HL-60, 24 h
HCT-116 [13] = test: Cytotoxicity against human HCT-116 cells assessed as reduction in cell viability incubated for 24 hrs by MTT assay; format: functional, cell-based; conditions: HCT-116, 24 h
[14] = Cytotoxicity against HUVEC cells; format: toxicity, cell-based; conditions: human
BXPC-3 = test: Antiproliferative activity against human BXPC-3 assessed as reduction in cell growth; format: functional, cell-based
A549 [15] = test: Cytotoxicity against human A549 cells assessed as reduction in cell growth; format: functional, cell-based
HepG2 [16] = test: Antiproliferative activity against human HepG2 cells assessed as reduction in cell growth incubated for 24 hrs by MTT assay; format: functional, cell-based; conditions: HepG2, 24 h
HT-29 [17] = test: Antiproliferative activity against human HT-29 cells assessed as reduction in cell viability incubated for 72 hrs by MTT assay; format: functional, cell-based; conditions: HT-29, 72 h
A549 [18] = test: Antiproliferative activity against human A549 cells assessed as reduction in cell growth incubated for 24 hrs by MTT assay; format: functional, cell-based; conditions: A549, 24 h
MCF7 [19] = test: Antiproliferative activity against human MCF7 cells assessed as reduction in cell viability incubated for 72 hrs by MTT assay; format: functional, cell-based; conditions: MCF7, 72 h
MCF7 [20] = test: Antiproliferative activity against human MCF7 cells assessed as reduction in cell growth incubated for 24 hrs by MTT assay; format: functional, cell-based; conditions: MCF7, 24 h
A549 [21] = test: Antiproliferative activity against human A549 cells assessed as reduction in cell viability incubated for 72 hrs by MTT assay; format: functional, cell-based; conditions: A549, 72 h
Jurkat = test: Antiproliferative activity against human Jurkat cells assessed as reduction in cell viability incubated for 72 hrs by MTT assay; format: functional, cell-based
A549 [22] = test: Cytotoxicity against human A549 cells; format: functional, cell-based
[23] = Antiproliferative activity against human MCF7/MX cells assessed as reduction in cell growth incubated for 24 hrs by MTT assay; format: functional, cell-based
RS4-11 = test: Antiproliferative activity against human RS4-11 cells assessed as reduction in cell viability incubated for 72 hrs by MTT assay; format: functional, cell-based; conditions: RS4-11, 72 h
HCT-116 [24] = test: Cytotoxicity against human HCT-116 cells after 24 hrs by MTT assay; format: functional, cell-based; conditions: HCT-116, 24 h
HepG2 [25] = test: Cytotoxicity against human HepG2 cells after 24 hrs by MTT assay; format: functional, cell-based; conditions: HepG2, 24 h
MCF7 [26] = test: Cytotoxicity against human MCF7 cells after 24 hrs by MTT assay; format: functional, cell-based; conditions: MCF7, 24 h
[27] = Cytotoxicity against human MCF-10A cells measured after 24 hrs by MTT assay; format: toxicity, cell-based
HT-29 [28] = test: Antiproliferative activity against human HT-29 cells assessed as inhibition of cell growth at 0.1 uM measured for 48 hrs by MTT assay relative to control; format: functional; conditions: HT-29, 48 h, values are per cent of control
A549 [29] = test: Antiproliferative activity against human A549 cells assessed as inhibition of cell growth at 0.1 uM measured for 48 hrs by MTT assay relative to control; format: functional
HepG2 [30] = test: Anticancer activity against human HepG2 cells; format: functional, cell-based
Caco-2 = test: Cytotoxicity against human Caco-2 cells assessed as reduction in cell growth incubated for 24 hrs by MTT assay; format: functional, cell-based; conditions: Caco-2, 24 h
MDA-MB-231 [31] = test: Antiproliferative activity against human MDA-MB-231 cells assessed as inhibition of cell growth at 0.1 uM measured for 48 hrs by MTT assay relative to control; format: functional
HepG2 [32] = test: Cytotoxicity against human HepG2 cells assessed as reduction in cell growth incubated for 24 hrs by SRB assay; format: functional, cell-based; conditions: HepG2, 24 h
HCT-116 [33] = test: Cytotoxicity against human HCT-116 cells assessed as reduction in cell growth incubated for 24 hrs by MTT assay; format: functional, cell-based; conditions: HCT-116, 24 h
PC-3 = test: Anticancer activity against human PC-3 cells; format: functional, cell-based
HT-29 [34] = test: Antiproliferative activity against human HT-29 cells assessed as reduction in cell growth by MTT assay; format: functional, cell-based
HCT-15 [35] = test: Antiproliferative activity against human HCT-15 cells assessed as inhibition of cell growth at 0.1 uM measured for 48 hrs by MTT assay relative to control; format: functional
HeLa [36] = test: Cytotoxicity against human HeLa cells assessed as reduction in cell growth incubated for 24 hrs by MTT assay; format: functional, cell-based
PANC-1 = test: Antiproliferative activity against human PANC-1 cells by MTT assay; format: functional, cell-based
HeLa [37] = test: Antiproliferative activity against human HeLa cells assessed as inhibition of cell growth at 0.1 uM measured for 48 hrs by MTT assay relative to control; format: functional; conditions: values are per cent of control
DU-145 = test: Anticancer activity against human DU-145 cells; format: functional, cell-based

## CCCCCCCCCCCCn1cnc(C(=O)OCC)c1N
HCT-15 [1]
  inhibition at 20 µM: 52%
HT-29 [2]
  inhibition at 20 µM: 82%
MDA-MB-231 [3]
  inhibition at 20 µM: 69%
A549 [4]
  inhibition at 20 µM: 54%
HeLa [5]
  inhibition at 20 µM: 85%

## CN(C)CCCOc1ccc(-c2nc(-c3ccc(Br)o3)[nH]c2-c2ccc(OCCCN(C)C)cc2)cc1
[6]
  IC50: 8.42 µM
NCI-H1299
  IC50: < 0.1 µM
A549 [7]
  IC50: 5.82 µM
NCI-H460
  IC50: 4.16 µM
MCF7 [8]
  IC50: 6.91 µM

## CCOC(=O)c1nn(-c2ccc(Cl)cc2)/c(=N\NC2=NC(c3ccccc3)(c3ccccc3)C(=O)N2)s1
HepG2 [9]
  IC50: 0.72 µM

## Cc1[nH]c(SCc2ccccc2)nc1Cc1ccccc1
MDA-MB-231 [10]
  IC50: 8.26 µM
[11]
  IC50: 8.03 µM

## S=c1[nH]c(-n2nnc3ccccc32)cn1-c1ccc(Cl)cc1Cl
MCF7 [12]
  IC50: 0.58 µM
HL-60
  IC50: 0.4 µM
HCT-116 [13]
  IC50: 0.24 µM
[14]
  IC50: 13.6 µM

## COc1ccc2cc([C@H](C)C3=NC(Cc4ccccc4)C(=O)N3/N=C/c3ccc(N(C)C)cc3)ccc2c1 (stereo partly specified)
BXPC-3
  IC50: 18.3 µM
A549 [15]
  IC50: 9.4 µM

## Cc1[nH]c(SCc2c(F)cccc2F)nc1Cc1ccccc1
MDA-MB-231 [10]
  IC50: 9.5 µM
[11]
  IC50: 6.66 µM

## COc1ccc(/C=C\c2cc(OC)c(OC)c(OC)c2)cc1O [COMBRETASTATIN A4]
MCF7 [12]
  IC50: 3.57 µM
HepG2 [16]
  IC50: 0.63 µM
HT-29 [17]
  IC50: 0.18 µM
A549 [18]
  IC50: 0.86 µM
MCF7 [19]
  IC50: 0.005 µM
MCF7 [20]
  IC50: 0.43 µM
A549 [21]
  IC50: 3.1 µM
Jurkat
  IC50: 0.0008 µM
HL-60
  IC50: 0.77 µM
A549 [22]
  IC50: 0.048 µM
HCT-116 [13]
  IC50: 2.63 µM
[23]
  IC50: 1.49 µM
RS4-11
  IC50: 0.37 µM
[14]
  IC50: 119 µM

## CC(=O)O[C@@]12CO[C@@H]1C[C@H](O)[C@@]1(C)C(=O)[C@H](O)C3=C(C)[C@@H](OC(=O)[C@H](O)[C@@H](NC(=O)OC(C)(C)C)c4ccccc4)C[C@@](O)([C@@H](OC(=O)c4ccccc4)[C@H]21)C3(C)C [DOCETAXEL ANHYDROUS]
HCT-116 [24]
  IC50: 14 µM
HepG2 [25]
  IC50: 8.13 µM
MCF7 [26]
  IC50: 11.1 µM
[27]
  IC50 at 24 h: 33.2 µM

## COc1cccc2c1C(=O)c1c(O)c3c(c(O)c1C2=O)C[C@@](O)(C(=O)CO)C[C@@H]3O[C@H]1C[C@H](N)[C@H](O)[C@H](C)O1 [DOXORUBICIN]
HT-29 [28]
  viability, % of control at 0.1 µM: 93%
A549 [29]
  inhibition at 0.1 µM: 89%
HepG2 [30]
  IC50: 0.62 µM
Caco-2
  IC50: 5.17 µM
MDA-MB-231 [31]
  inhibition at 0.1 µM: 83%
HepG2 [32]
  IC50: 0.42 µg/mL (≈ 0.773 µM)
HCT-116 [33]
  IC50: 5.64 µM
HepG2 [9]
  IC50: 0.86 µM
PC-3
  IC50: 2.3 µM
HT-29 [34]
  IC50: 1 µM
HCT-15 [35]
  inhibition at 0.1 µM: 94%
HeLa [36]
  IC50: 1.25 µM
PANC-1
  IC50: 1.4 µM
HeLa [37]
  viability, % of control at 0.1 µM: 90%
DU-145
  IC50: 4.6 µM

## C#Cc1cccc(Nc2ncnc3cc(OCCOC)c(OCCOC)cc23)c1 [ERLOTINIB]
BXPC-3
  IC50: 9.8 µM
A549 [15]
  IC50: 25.2 µM
